Values of other authors as cited in patent publication US12194028B2 (Slayback Pharma LLC, priority 2022, dated 2025).

aqueous solubility (in water): 40 to 50 µg/mL
solubility (throughout physiological pH range of 1.0-8.0): very low
SMILES: COc1ccc(-n2nc(C(N)=O)c3c2C(=O)N(c2ccc(N4CCCCC4=O)cc2)CC3)cc1 [apixaban, 1-(4-methoxyphenyl)-7-oxo-6-[4-(2-oxopiperidin-1-yl)phenyl]-4,5-dihydropyrazolo [3,4-c] pyridine-3-carboxamide]
